{"source": "patent US20110082220A1", "about": "“PORCINE UMAMI TASTE RECEPTORS AND USES THEREFOR” (The Regents of The University of California, priority 2007, published 2011)", "key": {"[1]": {"test_system": "Pig umami receptor (T1R1/T1R3)", "experiment": "Screening assay for ligands: calcium influx via pig umami receptor in transfected CHO-K1 cells (Fluo-4 NW)", "assay_type": "cell-based", "details": "for Absorbance Mean: CHO-K1 cells with pig taste receptors and mouse G alpha 15; for Index Relative to control: ratio of calcium influx to control (no treatment = 1.00); for stimulation of the pig umami receptor (signal, in words): CHO-K1 cell system, calcium signal; for response index: example test run, background (no treatment) = response ratio 1.0, concentration not given"}, "[2]": {"test_system": "weaned piglets", "experiment": "Double-choice preference test in drinking water, weaned piglets", "assay_type": "in vivo, pigs (Landrace×Large White)", "details": "0.5 M solution vs tap water; for % of preference Mean: two minutes, ad libitum conditions", "description": "This example tests preferences in drinking water for amino acids L-Glutamine and L-Lysine in weaned piglets maintained in ad libitum conditions.\nA total number of 58 pigs (Landrace×Large White) of 18±2 Kg BW, half males and half females, were used in this study. The test pigs were selected according to their level of stress and behaviour in front of social isolation, reaction to novelty and training to perform a choice between two containers that had the test solution (sugar at 0.5M) and control solution (tap water) after an habituation period of four days. During the habituation period, individual pigs were maintained in contiguous pens in front of two unfamiliar red plastic containers (double-choice test) during 10 minutes every day. On the fourth day, animals were trained for performing the test. […] Selected test animals were maintained in groups of four and three pen mates under ad libitum conditions, feed and water, with a balanced diet according to their requirements. During the experimental sessions, pigs were exposed simultaneously to two different solutions (approximately 250 g in each container) for a time period of two minutes. One of the solutions was tap water (control) and the other contained a 0.5M solution of one of the amino acids tested (test). Volume depletion of both test and control solutions were recorded and the % preference related to the test solution calculated as follows: […]"}}, "note": "“And” between values parts separate entries of the source, which are not always exact repeats. Identical values can stand only once.", "data": [{"smiles": "N[C@@H](CO)C(=O)O", "note": "[Serine]", "values": [{"measurement": "Absorbance Mean", "setting": "[1]; treatment 5 mM", "value": 8372}, {"measurement": "Index Relative to control", "setting": "[1]; treatment 5 mM", "value": 1.00}, {"measurement": "Absorbance Mean", "setting": "[1]; treatment 10 mM", "value": 9697}, {"measurement": "Index Relative to control", "setting": "[1]; treatment 10 mM", "value": 1.16}]}, {"smiles": "NCCCC[C@H](N)C(=O)O", "note": "[L-Lysine]", "values": [{"measurement": "stimulation of the pig umami receptor (signal, in words)", "setting": "[1]", "value": "little or no capacity"}, {"measurement": "preference (in words)", "setting": "[2]", "value": "negative preference"}, {"measurement": "% of preference Mean", "setting": "[2]", "value": 37.66, "unit": "%"}, {"measurement": "preferences over tap water", "setting": "[2]; study not given", "value": "about 38%"}]}, {"smiles": "O=P(O)(O)O[C@@H]1[C@@H](O)[C@H](O)[C@@H](O)[C@H](O)[C@@H]1O", "note": "[IMP, inositol monophosphate]", "values": [{"measurement": "Absorbance Mean", "setting": "[1]; treatment 2.5 mM", "value": 9161}, {"measurement": "Index Relative to control", "setting": "[1]; treatment 2.5 mM", "value": 1.10}]}, {"smiles": "CC(C)C[C@H](N)C(=O)O", "note": "[Leucine]", "values": [{"measurement": "stimulation of the pig umami receptor (signal, in words)", "setting": "[1]", "value": "the strongest and the most significant signal"}, {"measurement": "Absorbance Mean", "setting": "[1]; treatment 10 mM", "value": 9163}, {"measurement": "Index Relative to control", "setting": "[1]; treatment 10 mM", "value": 1.10}, {"measurement": "Absorbance Mean", "setting": "[1]; treatment 30 mM", "value": 10161}, {"measurement": "Index Relative to control", "setting": "[1]; treatment 30 mM", "value": "1.22^1"}]}, {"smiles": "N[C@@H](CC(=O)O)C(=O)O", "note": "[Aspartate]", "values": [{"measurement": "Absorbance Mean", "setting": "[1]; treatment 1 mM", "value": 8619}, {"measurement": "Index Relative to control", "setting": "[1]; treatment 1 mM", "value": 1.03}, {"measurement": "Absorbance Mean", "setting": "[1]; treatment 10 mM", "value": 10352}, {"measurement": "Index Relative to control", "setting": "[1]; treatment 10 mM", "value": "1.24^1"}]}, {"smiles": "C[C@H](N)C(=O)O", "note": "[alanine]", "values": [{"measurement": "response index", "setting": "[1]", "value": 3.47}]}, {"smiles": "N[C@@H](CS)C(=O)O", "note": "[cysteine]", "values": [{"measurement": "response index", "setting": "[1]", "value": 0.83}]}, {"smiles": "NCC(=O)O", "note": "[Glycine]", "values": [{"measurement": "Absorbance Mean", "setting": "[1]; treatment 1 mM", "value": 8874}, {"measurement": "Index Relative to control", "setting": "[1]; treatment 1 mM", "value": 1.06}, {"measurement": "Absorbance Mean", "setting": "[1]; treatment 5 mM", "value": 9543}, {"measurement": "Index Relative to control", "setting": "[1]; treatment 5 mM", "value": 1.14}]}, {"smiles": "Cl.NCCCC[C@H](N)C(=O)O", "note": "[Lysine HCl]", "values": [{"measurement": "Absorbance Mean", "setting": "[1]; treatment 10 mM", "value": 9319}, {"measurement": "Index Relative to control", "setting": "[1]; treatment 10 mM", "value": 1.12}, {"measurement": "Absorbance Mean", "setting": "[1]; treatment 30 mM", "value": 9675}, {"measurement": "Index Relative to control", "setting": "[1]; treatment 30 mM", "value": 1.16}]}, {"smiles": "C/C=C(/C)C(=O)O[C@H]1C(C)=C2[C@H]([C@@H]1OC(=O)CCCCCCC)[C@@](C)(OC(C)=O)C[C@H](OC(=O)CCC)[C@@]1(O)[C@H]2OC(=O)[C@@]1(C)O", "note": "[thapsigargin, reference compound]", "values": [{"measurement": "response index", "setting": "[1]", "value": 17.89}]}, {"smiles": "NC(=O)CC[C@H](N)C(=O)O", "note": "[Glutamine, L-Glutamine]", "values": [{"measurement": "stimulation of the pig umami receptor (signal, in words)", "setting": "[1]; listed as L-Glutamine", "value": "high degree of stimulation"}, {"measurement": "stimulation of the pig umami receptor (signal, in words)", "setting": "[1]; listed as glutamine", "value": "the strongest and the most significant signal"}, {"measurement": "Absorbance Mean", "setting": "[1]; treatment 1 mM", "value": 10901}, {"measurement": "Index Relative to control", "setting": "[1]; treatment 1 mM", "value": "1.31^1"}, {"measurement": "Absorbance Mean", "setting": "[1]; treatment 10 mM", "value": 10038}, {"measurement": "Index Relative to control", "setting": "[1]; treatment 10 mM", "value": "1.20^1"}, {"measurement": "% of preference Mean", "setting": "[2]", "value": "59.56% and 79.28%"}, {"measurement": "preferences over tap water", "setting": "[2]; 1st study", "value": 60, "unit": "%"}, {"measurement": "preferences over tap water", "setting": "[2]; 2nd study", "value": 79, "unit": "%"}]}, {"smiles": "NC(CCP(=O)(O)O)C(=O)O", "note": "[L-AP4]", "values": [{"measurement": "Absorbance Mean", "setting": "[1]; treatment 5 mM", "value": 8907}, {"measurement": "Index Relative to control", "setting": "[1]; treatment 5 mM", "value": 1.07}, {"measurement": "Absorbance Mean", "setting": "[1]; treatment 10 mM", "value": 9316}, {"measurement": "Index Relative to control", "setting": "[1]; treatment 10 mM", "value": 1.12}]}]}
